ChEMBL document CHEMBL1201862, “PubChem BioAssay data set” (2004)
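1) Cells in 96-well plates. 2) Compound, 48 h, 5 concentrations. 3) Linear interpolation between surrounding doses. 4) Unreached endpoint = highest concentration. GI50 is the concentration that inhibits growth by half.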 Activity calls are given as the source filed them. No stated cut-off is given here; in the data, active = GI50 up to about 1.1 µM and inactive = higher.

Experiments:
Test in all cases: NCI tumour cell line growth inhibition, 48 h
ACHN = system: ACHN
CCRF-CEM = system: CCRF-CEM
DU-145 = system: DU-145
EKVX = system: EKVX
IGROV-1 = system: IGROV-1
Malme-3M = system: Malme-3M
OVCAR-8 = system: OVCAR-8
SF-268 = system: SF-268
SK-MEL-2 = system: SK-MEL-2
SK-MEL-5 = system: SK-MEL-5
SNB-19 = system: SNB-19
SW-620 = system: SW-620
U-251 = system: U-251
MCF7 = system: MCF7
OVCAR-3 = system: OVCAR-3

| SMILES | GI50 (ACHN) | GI50 (CCRF-CEM) | GI50 (DU-145) | GI50 (EKVX) | GI50 (IGROV-1) | GI50 (Malme-3M) | GI50 (OVCAR-8) | GI50 (SF-268) | GI50 (SK-MEL-2) | GI50 (SK-MEL-5) | GI50 (SNB-19) | GI50 (SW-620) | GI50 (U-251) | GI50 (MCF7) | GI50 (OVCAR-3) |
| --- | --- | --- | --- | --- | --- | --- | --- | --- | --- | --- | --- | --- | --- | --- | --- |
| COC(=O)CN1C(=O)C2(C(=O)OC)OC1(c1ccc([N+](=O)[O-])cc1)C1C(=O)N(c3ccccc3)C(=O)C12 (stereo not drawn) | > 100 µM (inactive) | > 100 µM (inactive) | > 100 µM (inactive) | > 100 µM (inactive) | > 100 µM (inactive) | > 100 µM (inactive) | > 100 µM (inactive) | > 100 µM (inactive) | > 100 µM (inactive) | > 100 µM (inactive) | > 100 µM (inactive) | > 100 µM (inactive) | > 100 µM (inactive) |  |  |
| N=C(N)NCCCC(NC(=O)OCCCCn1ccc(N)nc1=O)C(=O)O (stereo not drawn) | > 100 µM (inactive) | > 100 µM (inactive) | > 100 µM (inactive) | > 100 µM (inactive) | > 100 µM (inactive) |  |  | > 100 µM (inactive) | > 100 µM (inactive) |  | > 100 µM (inactive) | > 100 µM (inactive) | > 100 µM (inactive) | > 100 µM (inactive) | > 100 µM (inactive) |
| CC1=NN(c2nc(N)nc(CSc3nc4n(c(=S)n3)CCN4)n2)C(C)(C)C1 | 44.9 µM (inactive) | > 100 µM (inactive) |  | 27.4 µM (inactive) | 15.1 µM (inactive) |  | 18.3 µM (inactive) | 15.3 µM (inactive) | 16.8 µM (inactive) | > 100 µM (inactive) | 37.9 µM (inactive) | > 100 µM (inactive) | 37.9 µM (inactive) | 51.5 µM (inactive) |  |
| O=c1c2cccnc2n2n1Cc1ccccc1C2 | > 100 µM (inactive) | > 100 µM (inactive) | > 100 µM (inactive) | 71.3 µM (inactive) | > 100 µM (inactive) | > 100 µM (inactive) | > 100 µM (inactive) | > 100 µM (inactive) |  | > 100 µM (inactive) |  | > 100 µM (inactive) | > 100 µM (inactive) | > 100 µM (inactive) | > 100 µM (inactive) |
| CN1CCN(c2ncc3c(n2)sc2c(=O)n(-c4ccccc4)cnc23)CC1 | > 100 µM (inactive) | > 100 µM (inactive) | > 100 µM (inactive) |  | > 100 µM (inactive) | > 100 µM (inactive) | > 100 µM (inactive) | > 100 µM (inactive) | > 100 µM (inactive) | > 100 µM (inactive) | > 100 µM (inactive) | > 100 µM (inactive) | > 100 µM (inactive) |  | > 100 µM (inactive) |
| C=CCN1CCN([C@H](c2ccc(C(=O)N(CC)CC)cc2)c2cccc(OC)c2)CC1 | > 25 µM (inactive) |  | > 25 µM (inactive) | > 25 µM (inactive) | > 25 µM (inactive) | > 25 µM (inactive) | > 25 µM (inactive) | > 25 µM (inactive) | > 25 µM (inactive) | > 25 µM (inactive) | > 25 µM (inactive) | > 25 µM (inactive) | > 25 µM (inactive) | > 25 µM (inactive) | > 25 µM (inactive) |
| O=C1c2ccc3c4ccc5c6c(ccc(c7ccc(c2c37)C(=O)N1CCN1CCCCC1)c64)C(=O)N(CCN1CCCCC1)C5=O | > 100 µM (inactive) | > 100 µM (inactive) | > 100 µM (inactive) | > 100 µM (inactive) | > 100 µM (inactive) |  | > 100 µM (inactive) | > 100 µM (inactive) | > 100 µM (inactive) | > 100 µM (inactive) | > 100 µM (inactive) | > 100 µM (inactive) | > 100 µM (inactive) | > 100 µM (inactive) | > 100 µM (inactive) |
| c1cc2c(cc1NC1=NCCO1)CCC2 |  | > 10 µM (inactive) |  | > 10 µM (inactive) | > 10 µM (inactive) | > 10 µM (inactive) | > 10 µM (inactive) | > 10 µM (inactive) | > 10 µM (inactive) | > 10 µM (inactive) | 0.0869 µM (active) | 8.26 µM (inactive) |  | > 10 µM (inactive) | > 10 µM (inactive) |
